From patent US20260152494A1, “CDK2 INHIBITORS AND METHODS OF USING THE SAME” (Cedilla Therapeutics, Inc., priority 2022, published 2026)
pIC50: −log10 of the molar value.

Experiments:
CDK2/Cyclin E1 = target: T1, CDK2/Cyclin E1 (Homo sapiens, UniProt P24941); experiment: CDK2/Cyclin E1 Caliper LabChip EZ Reader mobility shift assay; format: biochemical; settings: 2.5 nM CDK2/Cyclin E1, 100 μM ATP, 1.5 μM fluorescent peptide, 30 min preincubation; read-out: Caliper Assay (CDK2/CCNE1): IC50
T1 construct: purchased Eurofins 14-475
Procedure: Example A1: CDK2/Cyclin E1 Caliper Assay
Inhibition of CDK2/Cyclin E1 activity in the presence of compounds of the present disclosure was evaluated using a Caliper LabChip® EZ Reader mobility shift assay. In the assay, CDK2/Cyclin E1 (Eurofins, 14-475) catalyzed the phosphorylation of a fluorescently tagged peptide 5-FAM-QSPKKG-CONH2 (PerkinElmer, FL Peptide 18) which induced a difference in capillary electrophoresis mobility. The peptide substrate and product were measured, and the conversion ratio was used to determine the inhibition (as % activity and IC50 values) of CDK2/Cyclin E1. Reactions contained 50 mM HEPES pH 7.5, 10 mM MgCl2, 1 mM EDTA, 2 mM DTT, 0.01% Brij35, 0.5 mg/mL BSA, 0.1% DMSO, 2.5 nM CDK2/Cyclin E1, 100 μM ATP, and 1.5 μM fluorescent peptide substrate.
Dose titrations of inhibitors in 100% DMSO were combined with 3.25 nM CDK2/Cyclin E1 and 130 μM of ATP in reaction buffer. The mixtures were incubated for 30 minutes before the addition of fluorescent peptide substrate to initiate the kinase reaction. The final conditions were 2.5 nM CDK2/Cyclin E1, 100 μM ATP, and 1.5 μM fluorescent peptide. The reactions were stopped after 100 minutes with the addition of EDTA (400 mM final EDTA concentration). The stopped reactions were analyzed on a Caliper LabChip® EZ Reader II. The conversion ratios were normalized to yield % activity, plotted against compound concentration, and fit to a four-parameter equation to determine the IC50 for each compound.

[1] = tested on: Kuramochi cells labeled with mApple-H2B; experiment: IncuCyte cell proliferation assay; format: cell-based; settings: Kuramochi RB-WT cells, 72 hours, cell count normalized to DMSO
Procedure: Example A3: IncuCyte® Cell Proliferation Assay
IncuCyte® assay was used to measure the effect of disclosed compounds on cell proliferation. Fluorescent microscopy images of cells were taken immediately after compound treatment and 72 hours later. Image analysis software was used to obtain cell counts as a function of compound concentration. Kuramochi cells labeled with mApple-H2B were seeded on 384-well assay-ready plates. Plates were placed in an IncuCyte® (Sartorius) and scanned at 0 and 72 hours. IncuCyte® software was used to count the number of fluorescent nuclei in each well. The fold change in cell count from 0 to 72 hours in wells treated with increasing compounds concentrations (10 pts, 1/2 log dilution, 20 μM top concentration) was normalized to DMSO control wells. The normalized cell counts were fit with dose response curves and a GI50 was calculated.

Structure (SMILES)	pIC50 (CDK2/Cyclin E1)	pIC50 [1]
CN(C(=O)C1CC2(C1)CN(C(=O)c1cncs1)CC2c1nnc(C(F)(F)c2ccc(Cl)c(Cl)c2)o1)C1CC1 (racemic) [Compound I-16, rac-(R)—N-cyclopropyl-8-(5-((3,4-dichlorophenyl)difluoromethyl)-1,3,4-oxadiazol-2-yl)-N-methyl-6-(thiazole-5-carbonyl)-6-azaspiro[3.4]octane-2-carboxamide]	< 5.00	< 4.70
C[C@@H](OCC1CCCCC1)C(NC(=O)[C@@H]1CCOC12CN(C(=O)[C@H]1CC1(C)C)C2)C(=O)N1CCCCC1 (single isomer, unassigned) [I-29 1st]	< 5.00	< 4.70
C[C@@H](OCC1CCCCC1)[C@H](NC(=O)[C@H]1CCOC12CN(C(=O)[C@H]1CC1(C)C)C2)C(=O)N1CCCCC1 (single isomer, unassigned) [I-29 2nd]	< 5.00	< 4.70
C[C@@H](OCC1CCCCC1)[C@H](NC(=O)[C@@H]1CCOC12CN(C(=O)[C@H]1CC1(C)C)C2)C(=O)N1CCC[C@H](N)C1 (single isomer, unassigned) [I-31 1st]	< 5.00	< 4.70
C[C@@H](OCC1CCCCC1)[C@H](NC(=O)[C@H]1CCOC12CN(C(=O)[C@H]1CC1(C)C)C2)C(=O)N1CCC[C@H](N)C1 (single isomer, unassigned) [I-31 2nd]	< 5.00	< 4.70
C[C@@H](OCC1CCCCC1)[C@H](NC(=O)[C@@H]1CCOC12CN(C(=O)[C@H]1CC1(C)C)C2)C(=O)N1CCC[C@@H](N)C1 (single isomer, unassigned) [I-34 1st]	< 5.00	< 4.70
C[C@@H](OCC1CCCCC1)[C@H](NC(=O)[C@H]1CCOC12CN(C(=O)[C@H]1CC1(C)C)C2)C(=O)N1CCC[C@@H](N)C1 (single isomer, unassigned) [I-34 2nd]	< 5.00	< 4.70
CNC(=O)[C@@H](NC(=O)[C@H]1CCOC12CN(C(=O)[C@H]1CC1(C)C)C2)[C@@H](C)OCC1CCCCC1 (single isomer, unassigned) [I-35 1st]	< 5.00	< 4.70
CNC(=O)[C@@H](NC(=O)[C@@H]1CCOC12CN(C(=O)[C@H]1CC1(C)C)C2)[C@@H](C)OCC1CCCCC1 (single isomer, unassigned) [I-35 2nd]	< 5.00	< 4.70
O=C(c1cc(F)n[nH]1)N1CC(c2nnc(C(F)(F)c3ccc(Cl)c(Cl)c3)o2)C2(CCOCC2)C1 (stereo not shown) [Compound I-1]	< 5.00	< 4.70
O=C(c1cncs1)N1CC(c2nnc(C(F)(F)c3ccc(Cl)c(Cl)c3)o2)C2(CCN(C(=O)[C@H]3CC3(F)F)CC2)C1 (stereo partly drawn) [Compound I-2, (4-(5-((3,4-dichlorophenyl)difluoromethyl)-1,3,4-oxadiazol-2-yl)-2-(thiazole-5-carbonyl)-2,8-diazaspiro[4.5]decan-8-yl)((R)-2,2-difluorocyclopropyl)methanone]	< 5.00	< 4.70
O=C(c1cncs1)N1CC(c2nnc(C(F)(F)c3ccc(Cl)c(Cl)c3)o2)C2(CC(C(=O)N3CCC3)C2)C1 (stereo not shown) [Compound I-3]	–	< 4.70
CC(=O)N1CC(c2nnc(C(F)(F)c3ccc(Cl)c(Cl)c3)o2)C2(CCOCC2)C1 (stereo not shown) [Compound I-7]	< 5.00	< 4.70
O=C(c1cncs1)N1CC(c2nnc(C(F)(F)c3ccc(Cl)c(Cl)c3)o2)C2(CCS(=O)(=O)CC2)C1 (stereo not shown) [Compound I-8, (4-(5-((3,4-dichlorophenyl)difluoromethyl)-1,3,4-oxadiazol-2-yl)-8,8-dioxido-8-thia-2-azaspiro[4.5]decan-2-yl)(thiazol-5-yl)methanone]	< 5.00	< 4.70
O=C(c1cncs1)N1CC(c2nnc(C(F)(F)c3ccc(Cl)c(Cl)c3)o2)C2(CCNCC2)C1 (stereo not shown) [Compound I-9]	< 5.00	< 4.70
O=C(c1cnccn1)N1CC(c2nnc(C(F)(F)c3ccc(Cl)c(Cl)c3)o2)C2(CCOCC2)C1 (stereo not shown) [Compound I-10]	< 5.00	< 4.70
O=C(c1cncs1)N1CC(c2nnc(C(F)(F)c3ccc(Cl)c(Cl)c3)o2)C2(CCC2)C1 (stereo not shown) [Compound I-11, (8-(5-((3,4-dichlorophenyl)difluoromethyl)-1,3,4-oxadiazol-2-yl)-6-azaspiro[3.4]octan-6-yl)(thiazol-5-yl)methanone]	< 5.00	< 4.70
O=C(c1cncs1)N1CC(c2nnc(C(F)(F)c3ccc(Cl)c(Cl)c3)o2)C2(CCOCC2)C1 (stereo not shown) [Compound I-12, (4-(5-((3,4-dichlorophenyl)difluoromethyl)-1,3,4-oxadiazol-2-yl)-8-oxa-2-azaspiro[4.5]decan-2-yl)(thiazol-5-yl)methanone]	< 5.00	< 4.70
CC(C)(C)OC(=O)N1CCC2(CC1)CN(C(=O)c1cncs1)CC2c1nnc(C(F)(F)c2ccc(Cl)c(Cl)c2)o1 (stereo not shown) [Compound I-14, tert-butyl 4-(5-((3,4-dichlorophenyl)difluoromethyl)-1,3,4-oxadiazol-2-yl)-2-(thiazole-5-carbonyl)-2,8-diazaspiro[4.5]decane-8-carboxylate]	< 5.00	4.70 to 5.30
CC1(C)C[C@@H]1C(=O)N1CCC2(CC1)CN(C(=O)c1cncs1)CC2c1nnc(C(F)(F)c2ccc(Cl)c(Cl)c2)o1 (stereo partly drawn) [Compound I-15, (4-(5-((3,4-dichlorophenyl)difluoromethyl)-1,3,4-oxadiazol-2-yl)-2-(thiazole-5-carbonyl)-2,8-diazaspiro[4.5]decan-8-yl)((S)-2,2-dimethylcyclopropyl)methanone]	< 5.00	< 4.70
COC[C@H]1CCCN(C(=O)[C@@H](NC(=O)[C@@H]2CN(C(=O)c3cncs3)CC23CN([S+]([O-])C(C)(C)C)C3)[C@@H](C)OCC2CCCCC2)C1 (stereo partly drawn) [Compound I-17, (8S)-2-(tert-butylsulfinyl)-N-((2S,3R)-3-(cyclohexylmethoxy)-1-((S)-3-(methoxymethyl)piperidin-1-yl)-1-oxobutan-2-yl)-6-(thiazole-5-carbonyl)-2,6-diazaspiro[3.4]octane-8-carboxamide]	5.00 to 6.00	< 4.70
COC[C@H]1CCCN(C(=O)[C@@H](NC(=O)[C@@H]2CN(C(=O)c3cncs3)CC23CN(S(=O)(=O)C2CC2(C)C)C3)[C@@H](C)OCC2CCCCC2)C1 (stereo partly shown) [Compound I-18]	5.00 to 6.00	–
Cc1ccc(CNC(=O)[C@@H]2CN(C(=O)c3cnn(Cc4ccccc4)c3)CC23CN(C(=O)[C@H]2CC2(C)C)C3)nn1 [Compound I-20]	< 5.00	< 4.70
COC[C@H]1CCCN(C(=O)[C@@H](NC(=O)[C@H]2CN(C(=O)c3cncs3)CC23CN(C(=O)[C@H]2CC2(C)C)C3)[C@@H](C)OCC2CCCCC2)C1 [Compound I-21]	6.00 to 7.00	4.70 to 5.30
CC(=O)N1C[C@@H](C(N)=O)C2(C1)CN(C(C)=O)C2 [Compound I-22, (S)-2,6-diacetyl-2,6-diazaspiro[3.4]octane-8-carboxamide]	< 5.00	< 4.70
CC1(C)C[C@@H]1C(=O)N1CC2(CN(C(=O)c3cnn(Cc4ccccc4)c3)CC2C#N)C1 (stereo partly drawn) [Compound I-40, 6-(1-benzyl-1H-pyrazole-4-carbonyl)-2-((S)-2,2-dimethylcyclopropane-1-carbonyl)-2,6-diazaspiro[3.4]octane-8-carbonitrile]	< 5.00	–
